{"source": "patent US9012482B2", "about": "“Drug containing benzophenone derivative or its salt” (Toyama Chemical Co., Ltd., priority 2007, dated 2015)", "format_in_all_cases": "in vivo, mouse (DBA/1 J)", "key": {"RANKL mRNA": {"test_system": "RANKL mRNA", "test": "RANKL mRNA expression in hind paws of mice with type II collagen-induced arthritis (real-time PCR)", "protocol": "Male DBA/1 J mice at 8-week old (Charles River Laboratories Japan, Inc.) were used. Bovine type II collagen (KOKEN CO., LTD.) dissolved at 2 mg/mL in 0.1 mol/L acetic acid was mixed and emulsified with an equal volume of Freund's complete adjuvant (Difco Laboratories, Inc.), and then 0.2 mL of the emulsion was intradermally injected at the tail head of each mouse. The same treatment was carried out 21 days after the first immunization so that type II collagen-induced arthritis was induced in mice. T-5224 was dissolved in the 2-fold molar amount of sodium hydroxide solution, and then water and polyvinylpyrrolidone (PVP) at 3-fold weight of T-5224 were added to yield 3 mg/mL of T-5224-dosing solution. T-5224 at 30 mg/kg was orally administered once daily from 21 to 34 days after the first immunization. PVP solution was administered to the mice in Control group.\nOn the next day of final administration, the hind paws were collected. After the excision of claws and skin, they were immersed in RNA-stabilizing agent (RNAlater, Ambion, Inc.) and kept in a refrigerator overnight. Then RNA-stabilizing agent was wiped up, and the hind paws were cryopreserved and crushed by pressing under cooling with the liquid nitrogen. […]\n(§1) RT product (100 ng, equivalent amount to RNA) was mixed with 25 μL of quantitative PCR reagent (qPCR Mastermix, Eurogentec S.A.), 2.5 μL of probe/primer solution (TaqMan gene expression assays tumor necrosis factor (ligand) superfamily member 11 Mus musculus, Applied Biosystems) and RNase-free water (Takara Inc.) in total volume of 50 μL, and then PCR reaction (hold at 50° C. for 2 min, hold at 95° C. for 10 min, 40 cycles at 95° C. for 15 sec and at 60° C. for 1 min) was carried out using real-time PCR system (ABI PRISM 7700 sequence detection system, Applied Biosystems) to measure RANKL mRNA. […] The levels of RANKL mRNA and OPG mRNA were expressed as the normalized ratio to Hprt1 mRNA amount."}, "OPG mRNA": {"test_system": "OPG mRNA", "test": "OPG mRNA expression in hind paws of mice with type II collagen-induced arthritis (real-time PCR)", "conditions": "30 mg/kg orally once daily", "protocol": "Male DBA/1 J mice at 8-week old (Charles River Laboratories Japan, Inc.) were used. Bovine type II collagen (KOKEN CO., LTD.) dissolved at 2 mg/mL in 0.1 mol/L acetic acid was mixed and emulsified with an equal volume of Freund's complete adjuvant (Difco Laboratories, Inc.), and then 0.2 mL of the emulsion was intradermally injected at the tail head of each mouse. The same treatment was carried out 21 days after the first immunization so that type II collagen-induced arthritis was induced in mice. […]\nas §1"}, "[1]": {"test_system": "femora of mice with type II collagen-induced arthritis", "test": "Osteoporosis in femur of mice with type II collagen-induced arthritis: bone density as CT value (μCT)", "protocol": "The induction of mouse type II collagen-induced arthritis and the preparation of T-5224-dosing solution (1 mg/mL) were carried out by the same procedure in Example 1. T-5224 at 10 mg/kg was orally administered once daily from 21 to 49 days after the first immunization. PVP solution was administered to the mice in Control group.\nThe femora isolated on the next day of final administration were fixed with formalin, and then scanned using μCT scanner system (MCT-100CB, Hitachi, Ltd.) (X-ray tube voltage: 90.0 kV, X-ray tube current: 100 iris: 3630, magnification: ×5, resolution: 30 μm). Bone density was evaluated as CT value using 3D CT image (“img” format) assembled by μCT scanner system and bone morphometry software (TRI-3D/BON, Ratoc System Engineering Co., Ltd.) according to the manufacturer's protocol. The evaluation site was set on a metaphyseal slice with 0.35 mm thickness at a point 3% of the length of the femur from the distal growth plate, according to the report of Jochems C. et al. [Arthritis Research and Therapy, 2005, Vol. 7, page R837-R843]."}}}
{"molecule": "O=C(O)CCc1cc(C(=O)c2ccc(OC3CCCC3)cc2O)ccc1OCc1ccc2c(O)noc2c1", "note": "[T-5224]", "values": [{"measurement": "inhibition of the increase of RANKL mRNA level", "setting": "RANKL mRNA; 30 mg/kg orally once daily, days 21 to 34, hind paws", "value": 84, "unit": "%"}, {"measurement": "regulatory effect on expression of RANKL/OPG (in words)", "setting": "RANKL mRNA; hind paws of mice with type II collagen-induced arthritis, 30 mg/kg orally", "value": "controlling the expression of RANKL/OPG to normal level"}, {"measurement": "RANKL mRNA level (normalized ratio to Hprt1 mRNA amount)", "setting": "RANKL mRNA; hind paws, collagen-induced arthritis mice, 30 mg/kg orally once daily, days 21 to 34 after first immunization, Normal 0.096, Control 0.927", "value": 0.224}, {"measurement": "inhibition of the decrease of OPG mRNA level", "setting": "OPG mRNA; days 21 to 34", "value": 68, "unit": "%"}, {"measurement": "OPG mRNA level (normalized ratio to Hprt1 mRNA amount)", "setting": "OPG mRNA; collagen-induced arthritis mice, days 21 to 34 after first immunization, Normal 0.375, Control 0.156", "value": 0.306}, {"measurement": "inhibition of the reduction of CT value", "setting": "[1]; 10 mg/kg orally once daily, days 21 to 49, femur", "value": 49, "unit": "%"}, {"measurement": "CT Value (bone density)", "setting": "[1]; femur metaphyseal slice, 10 mg/kg orally once daily, days 21 to 49 after first immunization, Normal 761, Control 657", "value": 708}, {"measurement": "effect on development of osteoporosis in femora (in words)", "setting": "[1]; non-arthritic region of mice with type II collagen-induced arthritis, 10 mg/kg orally", "value": "inhibited the development of osteoporosis in femora"}]}
